In paper PMC6838013, “Insight Into Mosquito GnRH-Related Neuropeptide Receptor Specificity Revealed Through Analysis of Naturally Occurring and Synthetic Analogs of This Neuropeptide Family” (Frontiers in Endocrinology, 2019):
Several values for one entry are separate records, joined by “and”; a condition that tells them apart may be missing. Equal values may be shown once. Non-standard residues stand in square brackets, D forms with d. Residues, ends and D or L forms follow the SMILES beside them. pGlu = O=C1CC[C@@H](C(=O)O)N1

Key:
[1] = test system: A. aegypti ACP receptor (AedaeACPR); experiment: Calcium bioluminescence (aequorin) reporter assay of heterologously expressed ACPR; assay type: cell-based, Aedes aegypti; settings: for Fold-reduction in activity relative to AedaeACP: ACPR in CHO-K1 aequorin cells, relative to native Aedae-ACP; for EC50: CHO-K1 cells stably expressing aequorin, transiently transfected with ACPR and murine Gα15 (pBudCE4.1), luminescence 20 s, 3 to 4 independent biological replicates, ND = no determined EC50 due to minimal or no detectable activity up to 10 μM; for Activity on ACPR at the highest tested dose, in words: 10 μM, Figure 2, ANOVA and Tukey post-test
Excerpt: Therefore, to improve the bioluminescent signal linked to calcium mobilization following receptor activation, which was required in order to provide greater signal to noise ratio when testing ACP analogs with substitutions leading to intermediate levels of activation of the ACPR, we created a new mammalian expression construct using the dual promoter vector, pBudCE4.1. Specifically, we utilized a cloning strategy as reported previously ([41]) whereby the ACPR was inserted into the multiple cloning site (MCS) downstream of the CMV promoter in pBudCE4.1 using the sense primer SalI-KozakACPR, 5′-[…]-3′ and anti-sense primer XbaI-ACPR, 5′-[…]-3′, which directionally inserted the ACPR within the MCS downstream of the CMV promoter. Secondly, the murine homolog (Gα15) of the human promiscuous G protein, Gα16, which indiscriminately couples a wide variety of GPCRs to calcium signaling ([42]) was inserted into the MCS downstream of the EF1-α promoter in pBudCE4.1 using the sense primer NotI-Gα15, 5′-[…]-3′ and anti-sense primer BglII-Gα15, 5′-[…]-3′, which directionally inserted the murine Gα15 within the MCS downstream of the EF1-α promoter.
(§1) Functional activation of the AedaeACPR and AedaeAKHR-IA receptors was carried out following a previously described mammalian cell culture system involving a Chinese hamster ovary (CHO)-K1 cell line stably expressing aequorin ([43]). Cells were grown in DMEM:F12 media containing 10% heat-inactivated fetal bovine serum (Wisent, St. Bruno, QC), 200 μg/mL Geneticin, 1x antimycotic-antibiotic to approximately 90% confluency, and were transiently transfected using either Lipofectamine LTX with Plus Reagent or Lipofectamine 3000 transfection systems (Invitrogen, Burlington, ON) following manufacturer recommended DNA to transfection reagent ratios. Cells were detached from the culture flasks at 48 h post-transfection using 5 mM EDTA in Dulbecco's PBS. Cells were then prepared for the receptor functional assay following a procedure described previously ([27]). Stocks of peptide analogs of ACP and AKH were used for preparation of serial dilutions all of which were prepared in assay media (0.1% BSA in DMEM:F12) and loaded in quadruplicates into 96-well white luminescence plates (Greiner Bio-One, Germany). Cells were loaded with an automatic injector into each well of the plate containing different peptide analogs at various concentrations as well as negative control (assay media alone) and positive control wells (50 μM ATP). Immediately after injection of the cells, luminescence was measured for 20 s using a Synergy 2 Multi-Mode Microplate Reader (BioTek, Winooski, VT, USA). Calculations, including determination of EC50 values, were conducted in GraphPad Prism 7.02 (GraphPad Software, San Diego, USA) from dose-response curves from 3 to 4 independent biological replicates.

[2] = target: A. aegypti AKHR-IA receptor (AKHR-IA) (Aedes aegypti, UniProt A0A2P1A8S4); experiment: Calcium bioluminescence (aequorin) reporter assay of heterologously expressed AKHR-IA; assay type: cell-based; settings: for Fold-reduction in activity relative to Aedae-AKH: AKHR-IA in CHO-K1 aequorin cells, relative to native Aedae-AKH; for EC50: CHO-K1 cells stably expressing aequorin, transiently transfected with AKHR-IA (pcDNA3.1+), luminescence 20 s, 3 to 4 independent biological replicates, ND = no determined EC50 due to minimal or no detectable activity up to 10 μM
Chain of A. aegypti AKHR-IA receptor (AKHR-IA) (A0A2P1A8S4 1-410): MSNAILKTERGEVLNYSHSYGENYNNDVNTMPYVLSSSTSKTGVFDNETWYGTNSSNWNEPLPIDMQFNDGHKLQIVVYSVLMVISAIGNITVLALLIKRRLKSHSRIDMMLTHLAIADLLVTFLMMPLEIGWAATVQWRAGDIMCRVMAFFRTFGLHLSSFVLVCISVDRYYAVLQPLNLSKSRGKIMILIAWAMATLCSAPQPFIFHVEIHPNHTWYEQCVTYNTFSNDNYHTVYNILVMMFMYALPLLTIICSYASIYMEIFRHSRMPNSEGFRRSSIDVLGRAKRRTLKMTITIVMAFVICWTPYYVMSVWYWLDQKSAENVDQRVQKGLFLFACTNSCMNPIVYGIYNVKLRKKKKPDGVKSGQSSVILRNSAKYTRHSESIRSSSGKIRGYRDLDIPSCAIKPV
Protocol: For each construct, an overnight liquid culture of clonal recombinant bacteria containing the appropriate plasmid construct was grown in antibiotic-containing LB media and used to isolate midiprep DNA using the PureLink Midiprep kit (Life Technologies, Burlington, ON). Midiprep samples were then quantified and sent for sequencing as described previously ([26], [27]).
as §1

Compound | Fold-reduction in activity relative to AedaeACP [1] | EC50 [1] [nM] | other results
pQVTASRDWNAamide [Aedae-ACP (A4), synthetic ACP analog, alanine at position 4] | >1,000 fold |  | 
CC(C)[C@H](NC(=O)[C@@H]1CCC(=O)N1)C(=O)N[C@@H](CC(N)=O)C(=O)N[C@@H](Cc1ccccc1)C(=O)N[C@H](C(=O)N1CCC[C@H]1C(=O)N[C@@H](CO)C(=O)N[C@@H](Cc1c[nH]c2ccccc12)C(N)=O)[C@@H](C)O [Libau-AKH] ([pGlu]VNFTPSW-NH2) |  |  | Fold-reduction in activity relative to Aedae-AKH [2]: 548 fold and 547.9 fold; EC50 [2]: 1180 nM; Improved AKHR-IA activation over that achieved by Grybi-AKH ([2]; relative to Grybi-AKH): ~2 fold
pQ-TFSRDWNAamide [Aedae-ACP (1,3-10), internally truncated ACP analog lacking valine in the second position] | >1,000 fold |  | 
CC(C)C[C@H](NC(=O)[C@@H]1CCC(=O)N1)C(=O)N[C@@H](CC(N)=O)C(=O)N[C@@H](Cc1ccccc1)C(=O)N[C@H](C(=O)N1CCC[C@H]1C(=O)N[C@@H](CC(N)=O)C(=O)N[C@@H](Cc1c[nH]c2ccccc12)C(N)=O)[C@@H](C)O [Pyrap-AKH] ([pGlu]LNFTPNW-NH2) |  |  | Fold-reduction in activity relative to Aedae-AKH [2]: 337 fold and 336.7 fold; EC50 [2]: 727 nM
CC(C)[C@H](NC(=O)[C@@H]1CCC(=O)N1)C(=O)N[C@H](C(=O)N[C@@H](Cc1ccccc1)C(=O)N[C@@H](C)C(=O)N[C@@H](CCCNC(=N)N)C(=O)N[C@@H](CC(=O)O)C(=O)N[C@@H](Cc1c[nH]c2ccccc12)C(=O)N[C@@H](CC(N)=O)C(=O)N[C@@H](C)C(N)=O)[C@@H](C)O [Aedae-ACP (A5)] ([pGlu]VTFARDWNA-NH2) | 44.9 fold | 1040 | 
Ac-AVTFSRDWNA-NH2 [Aedae-ACP (A1b)] | 43.6 fold | 527 | 
CC(C)[C@H](NC(=O)[C@@H]1CCC(=O)N1)C(=O)N[C@H](C(=O)N[C@@H](Cc1ccccc1)C(=O)N[C@@H](CO)C(=O)N[C@@H](CCCNC(=N)N)C(=O)N[C@@H](C)C(=O)N[C@@H](Cc1c[nH]c2ccccc12)C(=O)N[C@@H](CC(N)=O)C(=O)N[C@@H](C)C(N)=O)[C@@H](C)O [Aedae-ACP (A7)] ([pGlu]VTFSRAWNA-NH2) | 15.9 fold | 386 | 
CC(C)[C@H](NC(=O)[C@@H]1CCC(=O)N1)C(=O)N[C@@H](CC(N)=O)C(=O)N[C@@H](Cc1ccccc1)C(=O)N[C@@H](CO)C(=O)N[C@H](C(=O)NCC(=O)N[C@@H](Cc1c[nH]c2ccccc12)C(N)=O)[C@@H](C)O [Grybi-AKH] ([pGlu]VNFSTGW-NH2) |  |  | EC50 [2]: 2230 nM
CC(C)C[C@H](NC(=O)[C@@H]1CCC(=O)N1)C(=O)N[C@H](C(=O)N[C@@H](Cc1ccccc1)C(=O)N[C@H](C(=O)N[C@@H](CO)C(=O)N[C@@H](CO)C(=O)N[C@@H](Cc1c[nH]c2ccccc12)C(N)=O)[C@@H](C)O)[C@@H](C)O [Hipes-AKH-I] ([pGlu]LTFTSSW-NH2) |  |  | Fold-reduction in activity relative to Aedae-AKH [2]: 7.6 fold; EC50 [2]: 16.5 nM
pQLTFTSS-amide [Lacol-AKH-7mer, C-terminally truncated synthetic analog based on an endogenous peptide from Laconobia oleracea] |  |  | AKHR-IA activation at the highest tested concentration ([2]; 10 μM, luminescence relative to maximal response with 10^−5M Aedae-AKH): ~ 7%
pQLTFSSGWGNamide [Helze-AKH, naturally-occurring insect AKH decapeptide] | >1,000 fold |  | Activity on ACPR at the highest tested dose, in words [1]: low activity
pQVTFSRDWNA-OH [Aedae-ACP (-OH), non-amidated (free acid) ACP analog] | >1,000 fold |  | 
C[C@H](NC(=O)[C@H](CC(N)=O)NC(=O)[C@H](Cc1c[nH]c2ccccc12)NC(=O)[C@H](CC(=O)O)NC(=O)[C@H](CCCNC(=N)N)NC(=O)[C@H](CO)NC(=O)[C@H](Cc1ccccc1)NC(=O)[C@@H](NC(=O)[C@H](C)NC(=O)[C@@H]1CCC(=O)N1)[C@@H](C)O)C(N)=O [Aedae-ACP (A2)] ([pGlu]ATFSRDWNA-NH2) |  | 705 | 
H-AVTFSRDWNA-NH2 [Aedae-ACP (A1)] |  | 1580 | 
pQLTFTSSWGGamide [Lacol-AKH, naturally-occurring insect AKH decapeptide] | >1,000 fold |  | Activity on ACPR at the highest tested dose, in words [1]: low activity
pQLTFTPSWamide [Aedae-AKH, endogenous octapeptide adipokinetic hormone of Aedes aegypti] |  |  | Activity on ACPR at the highest tested dose, in words [1]: inactive
CC(C)[C@H](NC(=O)[C@@H]1CCC(=O)N1)C(=O)N[C@H](C(=O)N[C@@H](Cc1ccccc1)C(=O)N[C@@H](CO)C(=O)N[C@@H](CCCNC(=N)N)C(=O)N[C@@H](CC(=O)O)C(=O)N[C@@H](Cc1c[nH]c2ccccc12)C(N)=O)[C@@H](C)O [Aedae-ACP (1-8)] ([pGlu]VTFSRDW-NH2) | 410.1 fold | 2160 | 
CC(C)[C@H](NC(=O)[C@@H]1CCC(=O)N1)C(=O)N[C@H](C(=O)N[C@@H](Cc1ccccc1)C(=O)N[C@@H](CO)C(=O)N[C@@H](CCCNC(=N)N)C(=O)N[C@@H](CC(=O)O)C(=O)N[C@@H](Cc1c[nH]c2ccccc12)C(=O)N[C@@H](CC(N)=O)C(=O)N[C@@H](C)C(=O)NCC(N)=O)[C@@H](C)O [Aedae-ACP (+G)] ([pGlu]VTFSRDWNAG-NH2) | 5.6 fold | 111 | 
CC(C)[C@H](NC(=O)[C@@H]1CCC(=O)N1)C(=O)N[C@H](C(=O)N[C@@H](Cc1ccccc1)C(=O)N[C@@H](CO)C(=O)N[C@@H](C)C(=O)N[C@@H](CC(=O)O)C(=O)N[C@@H](Cc1c[nH]c2ccccc12)C(=O)N[C@@H](CC(N)=O)C(=O)N[C@@H](C)C(N)=O)[C@@H](C)O [Aedae-ACP (A6)] ([pGlu]VTFSADWNA-NH2) | 23.3 fold | 687 | 
CC(C)[C@H](NC(=O)[C@@H]1CCC(=O)N1)C(=O)N[C@H](C(=O)N[C@@H](Cc1ccccc1)C(=O)N[C@@H](CO)C(=O)N[C@@H](CCCNC(=N)N)C(=O)N[C@@H](CC(=O)O)C(=O)N[C@@H](Cc1c[nH]c2ccccc12)C(=O)N[C@@H](CC(N)=O)C(N)=O)[C@@H](C)O [Aedae-ACP (1-9)] ([pGlu]VTFSRDWN-NH2) | 434.2 fold | 4150 | 
CC[C@H](C)[C@H](NC(=O)[C@@H]1CCC(=O)N1)C(=O)N[C@H](C(=O)N[C@@H](Cc1ccccc1)C(=O)N[C@@H](CO)C(=O)N[C@@H](CCCNC(=N)N)C(=O)N[C@@H](CC(=O)O)C(=O)N[C@@H](Cc1c[nH]c2ccccc12)C(=O)N[C@@H](CC(N)=O)C(=O)N[C@@H](C)C(N)=O)[C@@H](C)O [Grybi-ACP] ([pGlu]ITFSRDWNA-NH2) | 13.6 fold | 326 | Activity on ACPR at the highest tested dose, in words [1]: failed to reach full ACPR activation
pQVTFSRDANAamide [Aedae-ACP (A8), synthetic ACP analog, alanine at position 8] | >1,000 fold |  | 
CC(C)[C@H](NC(=O)[C@@H]1CCC(=O)N1)C(=O)N[C@H](C(=O)N[C@@H](Cc1ccccc1)C(=O)N[C@@H](CO)C(=O)N[C@@H](CCCNC(=N)N)C(=O)N[C@@H](CC(=O)O)C(=O)N[C@@H](Cc1c[nH]c2ccccc12)C(=O)N[C@@H](C)C(=O)N[C@@H](C)C(N)=O)[C@@H](C)O [Aedae-ACP (A9)] ([pGlu]VTFSRDWAA-NH2) | 0.2 fold | 4.96 | 
